{"source": "ChEMBL document CHEMBL4316584", "about": "“All that glitters is not gold: Panning cytotoxic natural products and derivatives with a fused tricyclic backbone by the estimation of their leadlikeness for cancer treatment” (Eur J Med Chem, 2019)", "format_in_all_cases": "functional, cell-based", "key": {"[1]": {"test_system": "HepG2", "test": "Cytotoxicity against human HepG2 cells by MTT assay"}, "[2]": {"test_system": "HL-60", "test": "Cytotoxicity against human HL60 cells after 48 hrs by MTT assay", "details": "HL-60, 48 h"}, "[3]": {"test_system": "KB", "test": "Cytotoxicity against human KB cells after 48 hrs by MTT assay"}, "[4]": {"test_system": "HepG2", "test": "Cytotoxicity against human HepG2 cells after 48 hrs by MTT assay", "details": "HepG2, 48 h"}, "[5]": {"test_system": "HL-60", "test": "Cytotoxicity against human HL60 cells after 48 hrs by MTS assay", "details": "HL-60, 48 h"}, "[6]": {"test_system": "MDA-MB-231", "test": "Cytotoxicity against human MDA-MB-231 cells after 48 hrs by MTT assay", "details": "MDA-MB-231, 48 h"}, "[7]": {"test_system": "K562", "test": "Cytotoxicity against human K562 cells after 48 hrs by MTT assay", "details": "K562, 48 h"}, "[8]": {"test_system": "Bel-7402", "test": "Cytotoxicity against human Bel7402 cells by MTT assay"}, "[9]": {"test_system": "MCF7", "test": "Cytotoxicity against human MCF7 cells after 48 hrs by MTS assay", "details": "MCF7, 48 h"}, "[10]": {"test_system": "HT-29", "test": "Cytotoxicity against human HT-29 cells after 48 hrs by MTS assay", "details": "HT-29, 48 h"}, "[11]": {"test_system": "MCF7", "test": "Cytotoxicity against human MCF7 cells after 48 hrs by MTT assay", "details": "MCF7, 48 h"}, "[12]": {"test_system": "K562", "test": "Cytotoxicity against human K562 cells after 48 to 72 hrs by MTT assay"}, "[13]": {"test_system": "Bel-7402", "test": "Cytotoxicity against human Bel7402 cells after 48 hrs by MTT assay", "details": "Bel-7402, 48 h"}, "[14]": {"test_system": "Bel-7402", "test": "Cytotoxicity against human Bel7402 cells after 44 hrs by MTT assay", "details": "Bel-7402, 44 h"}, "[15]": {"test_system": "HL-60", "test": "Cytotoxicity against human HL60 cells after 48 to 72 hrs by MTT assay"}, "[16]": {"test_system": "HepG2", "test": "Cytotoxicity against human HepG2 cells after 48 hrs by BrDU-incorporation based ELISA", "details": "HepG2, 48 h"}, "[17]": {"test_system": "MCF7", "test": "Cytotoxicity against human MCF7 cells after 24 hrs by MTT assay", "details": "MCF7, 24 h"}}}
{"smiles": "COc1ccc2c3ccnc(C)c3n(C)c2c1", "values": [{"measurement": "IC50", "setting": "[1]", "value": 16, "unit": "µM"}]}
{"smiles": "CC(C)c1cc2c(cc1O)[C@@]1(C)C[C@H](O)CC(C)(C)[C@@H]1CC2", "values": [{"measurement": "IC50", "setting": "[2]", "value": 17, "unit": "µM"}]}
{"smiles": "COC1=CC(=O)C[C@@]2(OC)Oc3ccccc3C[C@@]12O", "values": [{"measurement": "IC50", "setting": "[2]", "value": 4.08, "unit": "µM"}]}
{"smiles": "COc1cc2oc3cc(O)c(CC=C(C)C)c(O)c3c(=O)c2c(CC=C(C)C)c1OC", "values": [{"measurement": "IC50", "setting": "[3]", "value": 12.8, "unit": "µM"}]}
{"smiles": "C#CCNC1=CC(=O)c2c(O)c3c(c(O)c2C1=O)C[C@](C)(O)[C@H](O)C3", "values": [{"measurement": "IC50", "setting": "[4]", "value": 10.9, "unit": "µM"}]}
{"smiles": "CC(C)=CCC/C(C)=C/Cc1c(O)ccc2oc3cc(O)cc(O)c3c(=O)c12", "values": [{"measurement": "IC50", "setting": "[3]", "value": 14.5, "unit": "µM"}]}
{"smiles": "COc1ccc(CNC2=CC(=O)c3c(O)c4c(c(O)c3C2=O)C[C@](C)(O)[C@H](O)C4)cc1", "values": [{"measurement": "IC50", "setting": "[4]", "value": 10.1, "unit": "µM"}]}
{"smiles": "c1ccc2c(c1)ncn2CCCCCn1c2ccccc2c2ccccc21", "values": [{"measurement": "IC50", "setting": "[5]", "value": 14.1, "unit": "µM"}]}
{"smiles": "O=C1c2cccc(O)c2C(=O)c2c(O)cc(Cn3ccc(=O)[nH]c3=O)cc21", "values": [{"measurement": "IC50", "setting": "[4]", "value": 3.9, "unit": "µM"}]}
{"smiles": "COC1=CC(=O)C[C@@]2(OC)Oc3ccc(O)cc3C[C@@]12O", "values": [{"measurement": "IC50", "setting": "[2]", "value": 10.6, "unit": "µM"}]}
{"smiles": "Cc1cc(O)c2c(c1)C(=O)c1cc(O)c(CN3CCN(C)CC3)c(O)c1C2=O", "values": [{"measurement": "IC50", "setting": "[6]", "value": 10.4, "unit": "µM"}]}
{"smiles": "COc1cc(Cn2c3ccc(NC(=O)CCN(C)C)cc3c(=O)c3cc(NC(=O)CCN(C)C)ccc32)cc(OC)c1", "values": [{"measurement": "IC50", "setting": "[7]", "value": 4.7, "unit": "µM"}]}
{"smiles": "CCOC(=O)c1cc2c3ccccc3n(Cc3c(F)c(F)c(F)c(F)c3F)c2cn1", "values": [{"measurement": "IC50", "setting": "[8]", "value": 9, "unit": "µM"}]}
{"smiles": "Cc1cc(O)c2c(c1)C(=O)c1cc(OCCN3CCOCC3)cc(O)c1C2=O", "values": [{"measurement": "IC50", "setting": "[6]", "value": 4.24, "unit": "µM"}]}
{"smiles": "c1ccc2c(c1)ncn2CCCCn1c2ccccc2c2ccccc21", "values": [{"measurement": "IC50", "setting": "[9]", "value": 5.06, "unit": "µM"}]}
{"smiles": "COc1cc(-c2nc(Cn3cc(CN4C(=O)c5ccccc5C4=O)nn3)cc3c2[nH]c2ccccc23)cc(OC)c1OC", "values": [{"measurement": "IC50", "setting": "[10]", "value": 5.79, "unit": "µM"}]}
{"smiles": "COCCOCSc1nnc(-c2cccnc2)n1/N=C/c1c2ccccc2cc2ccccc12", "values": [{"measurement": "IC50", "setting": "[7]", "value": 0.09, "unit": "µM"}]}
{"smiles": "COc1cc2oc3cc(O)c(OC)c(CC=C(C)C)c3c(=O)c2c(O)c1C/C=C(/C)CO", "values": [{"measurement": "IC50", "setting": "[3]", "value": 15.5, "unit": "µM"}]}
{"smiles": "N#CC1=C(N)Oc2ccc3ccccc3c2C1c1ccc(Cl)cc1", "note": "(configuration not stated)", "values": [{"measurement": "IC50", "setting": "[3]", "value": 11.7, "unit": "µM"}]}
{"smiles": "COc1cc(O)c2c(c1O)C(=O)C1=C(C[C@@H](O)[C@@](C)(O)C1)C2=O", "values": [{"measurement": "IC50", "setting": "[11]", "value": 2.69, "unit": "µM"}, {"measurement": "IC50", "setting": "[4]", "value": 9.99, "unit": "µM"}]}
{"smiles": "COC1=CC(=O)c2c(ccc3cc(O)ccc23)C1=O", "values": [{"measurement": "IC50", "setting": "[12]", "value": 13.8, "unit": "µM"}]}
{"smiles": "COc1c(O)cc2oc3cc(O)c(C/C=C(/C)CO)c(O)c3c(=O)c2c1C/C=C(\\C)CCC=C(C)C", "note": "[COWANOL]", "values": [{"measurement": "IC50", "setting": "[3]", "value": 12, "unit": "µM"}]}
{"smiles": "CC(=O)Oc1cc(OC(C)=O)c2c(c1)C(=O)c1cc(C)cc(OC(C)=O)c1C2=O", "note": "[EMODIN TRIACETATE]", "values": [{"measurement": "IC50", "setting": "[6]", "value": 2.14, "unit": "µM"}]}
{"smiles": "CC(C)=CCc1c(O)c(CC=C(C)C)c2oc3c(O)ccc(O)c3c(=O)c2c1O", "note": "[GARTANIN]", "values": [{"measurement": "IC50", "setting": "[13]", "value": 7.78, "unit": "µM"}]}
{"smiles": "COc1c(O)cc2oc3cc(O)c(CC=C(C)C)c(O)c3c(=O)c2c1CC=C(C)C", "note": "[MANGOSTIN]", "values": [{"measurement": "IC50", "setting": "[3]", "value": 14.1, "unit": "µM"}]}
{"smiles": "Cc1cc(=O)[nH]c2c1C(=O)c1ccccc1C2=O", "note": "[MARCANIN A]", "values": [{"measurement": "IC50", "setting": "[14]", "value": 9.54, "unit": "µM"}]}
{"smiles": "COc1cc(O)cc2ccc3cccc(O)c3c12", "note": "[MOSCATIN]", "values": [{"measurement": "IC50", "setting": "[15]", "value": 19.2, "unit": "µM"}]}
{"smiles": "CC(C)=CCC/C(C)=C/Cc1c(O)c(O)cc2oc3cc(O)c(CC=C(C)C)c(O)c3c(=O)c12", "note": "[NORCOWANIN]", "values": [{"measurement": "IC50", "setting": "[3]", "value": 10.4, "unit": "µM"}]}
{"smiles": "c1ccc2nc3ccccc3nc2c1", "note": "[PHENAZINE]", "values": [{"measurement": "IC50", "setting": "[16]", "value": 7.8, "unit": "µM"}]}
{"smiles": "CCN(CC)CCCC(C)Nc1c2ccc(Cl)cc2nc2ccc(OC)cc12", "note": "(configuration not stated) [QUINACRINE]", "values": [{"measurement": "IC50", "setting": "[17]", "value": 7.5, "unit": "µM"}]}
{"smiles": "CC(C)c1cc2c(cc1O)[C@@]1(C)CCCC(C)(C)[C@@H]1CC2=O", "note": "[SUGIOL]", "values": [{"measurement": "IC50", "setting": "[7]", "value": 6.7, "unit": "µM"}]}
